pIC50: −log10 of the molar value. Activity calls are given as the source filed them. No cut-off for these calls is given here.

Assay [1] addresses T1, Mitogen-activated protein kinase 8 (Homo sapiens, UniProt P45983). The following applies: dose 2.0 nM.
Assay [2] has as its target Mitogen-activated protein kinase 9 (Homo sapiens, UniProt P45984). Nature of the assay: Inhibition of JNK2 (unknown origin).
The target of assay [3] is T1, Mitogen-activated protein kinase 8. The following applies: dose 10.0 nM.
For assay [4] the target is unchanged. Kind of assay: Inhibition of JNK1 (unknown origin).
Assay [5] relates to A549. Kind of assay: Anti-fibrotic activity in human A549 cells assessed as reduction in TGFbeta1-induced fibronectin expression at 0.3 uM by Western blot analysis. Type of assay: functional, cell-based. A general note: Immunoblotting shows a protein as a band on a membrane.
For assay [6], the system named is A549. Nature of the assay: Anti-fibrotic activity in human A549 cells assessed as reduction in TGFbeta1-induced c-Jun expression at 0.3 uM by Western blot analysis. Type of assay: functional, cell-based.

T1 sequence (P45983 whole entry): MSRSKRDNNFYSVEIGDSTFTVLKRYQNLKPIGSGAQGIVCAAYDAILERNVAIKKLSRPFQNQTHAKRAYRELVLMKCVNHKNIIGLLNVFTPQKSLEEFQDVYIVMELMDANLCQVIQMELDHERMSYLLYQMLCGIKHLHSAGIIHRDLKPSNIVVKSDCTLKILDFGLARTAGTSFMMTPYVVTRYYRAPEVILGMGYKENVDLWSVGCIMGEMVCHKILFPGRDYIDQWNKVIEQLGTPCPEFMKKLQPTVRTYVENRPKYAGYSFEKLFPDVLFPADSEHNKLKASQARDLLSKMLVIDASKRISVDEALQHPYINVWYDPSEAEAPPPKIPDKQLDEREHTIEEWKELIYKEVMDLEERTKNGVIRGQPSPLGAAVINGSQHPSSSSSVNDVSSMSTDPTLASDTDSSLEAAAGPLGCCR
Sequence of Mitogen-activated protein kinase 9 (P45984 whole entry): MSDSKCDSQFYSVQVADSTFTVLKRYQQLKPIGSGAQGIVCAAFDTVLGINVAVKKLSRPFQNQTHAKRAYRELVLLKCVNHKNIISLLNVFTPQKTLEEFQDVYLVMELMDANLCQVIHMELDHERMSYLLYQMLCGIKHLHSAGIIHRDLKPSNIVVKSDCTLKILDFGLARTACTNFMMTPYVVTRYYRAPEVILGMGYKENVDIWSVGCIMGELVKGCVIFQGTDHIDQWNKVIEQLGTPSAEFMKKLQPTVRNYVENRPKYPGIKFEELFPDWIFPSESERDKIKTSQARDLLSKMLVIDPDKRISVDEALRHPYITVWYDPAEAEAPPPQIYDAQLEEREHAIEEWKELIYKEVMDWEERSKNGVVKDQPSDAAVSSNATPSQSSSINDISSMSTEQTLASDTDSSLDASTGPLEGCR

For `NC(=O)c1ccccc1Nc1nc(Nc2ccc(C(=O)N3CC4CC(C3)O4)cc2)ncc1Br`, the inhibition in assay [1] was determined as 10.8%.

In turn, `NC(=O)c1ccccc1Nc1nc(Nc2ccc(C(=O)N3CCC4(CCNCC4)CC3)cc2)ncc1Br` returned an inhibition in assay [1] of 33.2%. With `NC(=O)c1ccccc1Nc1nc(Nc2ccc(C(=O)N3CCC4(CCCC4)CC3)cc2)ncc1Br`, the inhibition entry in assay [1] was “inactive”. Turning to `NC(=O)c1ccccc1Nc1nc(Nc2ccccc2)ncc1Br`, the pIC50 was 8.03 in assay [2] and 8.52 in assay [4]. For the same molecule, the figures for the inhibition in assay [1] and in assay [3] were 18.1% and 62.1%, respectively.

For `NC(=O)c1ccccc1Nc1nc(Nc2ccc(C(=O)N3CC4CC3CO4)cc2)ncc1Br` (stereo not drawn), the outcome in the assay on A549 [5] and in the assay on A549 [6] was Active. The pIC50 was 8.08 in assay [2] and 9.10 in assay [4]. The inhibition in assay [1] came to 76.1%. In the case of `NC(=O)c1ccccc1Nc1nc(Nc2ccc(C(=O)N3CCC4(CCOC4)CC3)cc2)ncc1Br`, the figures for the pIC50 in assay [2] and in assay [4] were 8.13 and 8.85, respectively. In addition, the inhibition in assay [1] came out at 60.4%. As to `NC(=O)c1ccccc1Nc1nc(Nc2ccc(C(=O)N3CCC4(CCCO4)CC3)cc2)ncc1Br`, in assay [1], the inhibition worked out at 47.6%. With `CN1CC2CCC(C1)N2C(=O)c1ccc(Nc2ncc(Br)c(Nc3ccccc3C(N)=O)n2)cc1`, the pIC50 is 7.90 in assay [2] and 8.82 in assay [4]. In addition, the inhibition in assay [1] was determined as 56.6%. `NC(=O)c1ccccc1Nc1nc(Nc2ccc(C(=O)N3CCC4(CC3)OCCO4)cc2)ncc1Br` displayed an inhibition in assay [1] of 15%. The molecule `NC(=O)c1ccccc1Nc1nc(Nc2ccc(C(=O)N3CC4CCC(C3)N4)cc2)ncc1Br` yielded an inhibition in assay [1] of 45.1%. The molecule `NC(=O)c1ccccc1Nc1nc(Nc2ccc(C(=O)N3CCC4(CCNC4)CC3)cc2)ncc1Br` came in with an inhibition in assay [1] of 49.9%.

`NC(=O)c1ccccc1Nc1nc(Nc2ccc(C(=O)N3C4CCC3COC4)cc2)ncc1Br` displayed an inhibition in assay [1] of 46.3%. In assay [1], `CN1C[C@H]2C[C@@H]1CN2C(=O)c1ccc(Nc2ncc(Br)c(Nc3ccccc3C(N)=O)n2)cc1` displayed an inhibition of 49.3%. For `NC(=O)c1ccccc1Nc1nc(Nc2ccc(C(=O)N3CCC4(CCCCC4)CC3)cc2)ncc1Br`, the inhibition entry in assay [1] was “inactive”.

Take `NC(=O)c1ccccc1Nc1nc(Nc2ccc(C(=O)N3C4CCC3CNC4)cc2)ncc1Br`: the inhibition in assay [1] was determined as 34.4%.

`NC(=O)c1ccccc1Nc1nc(Nc2ccc(C(=O)N3C[C@H]4C[C@@H]3CN4)cc2)ncc1Br` showed an inhibition in assay [1] of 51.3%. `NC(=O)c1ccccc1Nc1nc(Nc2ccc(C(=O)N3CCC4(CCOCC4)CC3)cc2)ncc1Br`: the inhibition in assay [1] amounted to 46.8%.

For orientation: inhibition means the change of the read-out against control, counted positive when it falls. For orientation: pIC50 means the IC50 on a negative log10 scale, so that one unit is a factor of ten.

For the origin of these results see ChEMBL document CHEMBL6087431, “Discovery of a selective and potent inhibitor of c-Jun N-terminal kinase 1 with anti-pulmonary fibrosis effect” (Bioorg Med Chem Lett, 2025).
